This note sets out measurements from US20230279008A1, “PTGR2 INHIBITORS AND THEIR USE” (National Health Research Institutes, priority 2022, published 2023).

Each structure is given as a SMILES string.

In assay [1] the target is T1, human PTGR2 (Homo sapiens (Human), UniProt Q8N8N7). Description: Cell-based GAL4-PPAR luciferase reporter assay in HEK293T cells transfected with human PTGR2. The conditions noted are these: UASG reporter, GAL4-PPAR and human PTGR2-Tag vectors, luciferase normalized to TK-Rluc. As for the experimental part: HEK293T cells were seeded at 1×10^5 cells/well in a 24-well plate. […] Cells were treated and harvested in two batches, one after 24 hours and another after 48 hours. The luciferase activity was measured by a Luc-Pair™ Duo-Luciferase HS Assay Kit (commercially available from Promega Corporation) and normalized to the TK-Rluc reporter signal, which was recorded and used to calculate the EC50 value of a PTGR2 inhibitor.
For orientation: Reporter assays use an easily measured gene product as a stand-in for the process of interest.

In assay [2] the target is T1, human PTGR2. Briefly: In vitro PTGR2 enzyme activity assay (NADPH decrease, Glo-NADPH luminescence). The conditions noted are these: 15-keto-PGE2 20 μM, NADPH 20 μM, pH 7.3. In kind it is biochemical. As for the experimental part: In vitro enzyme activity was measured to determine the half maximal inhibitory concentration (IC50) of compounds of this invention as PTGR2 inhibitors. The reduction of 15-keto-PGE2 by PTGR2 requires NADPH. The decrease of NADPH during the reduction reaction indicates […] of PTGR2 and thus is used to calculate the IC50 of a PTGR2 inhibitor. […] The resultant mixture was pre-incubated at room temperature for 15 minutes. After the incubation, 15-keto-PGE2 was added to a final concentration of 20 μM, together with NADPH (20 μM, final concentration) and a Glo-NADPH reagent (commercially available from Promega Corporation, Madison, Wis.).

T1 sequence (Q8N8N7 whole entry, the tested form may be a part): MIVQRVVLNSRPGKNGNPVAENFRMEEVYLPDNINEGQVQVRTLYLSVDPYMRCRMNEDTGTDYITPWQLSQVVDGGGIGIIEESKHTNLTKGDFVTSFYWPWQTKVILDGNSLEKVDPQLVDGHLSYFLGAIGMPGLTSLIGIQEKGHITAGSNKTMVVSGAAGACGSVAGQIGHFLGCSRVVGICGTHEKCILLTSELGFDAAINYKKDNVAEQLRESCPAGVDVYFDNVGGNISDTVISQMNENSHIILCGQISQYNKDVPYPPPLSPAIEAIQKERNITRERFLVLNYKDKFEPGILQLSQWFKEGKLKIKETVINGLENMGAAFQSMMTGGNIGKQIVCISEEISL

The EC50 is the concentration giving half of the maximal effect. As usually defined, the IC50 is the point on the concentration scale where inhibition reaches its midpoint. Read a high IC50 as weaker potency in that assay. In the case of `COc1ccccc1N1CCN(Cc2nc3[nH]c(C)c(Cc4ccc(Cl)cc4)c(=O)n3n2)CC1` [Compound 1, 6-(4-chlorobenzyl)-2-((4-(2-methoxyphenyl)piperazin-1-yl)methyl)-5-methyl-[1,2,4]triazolo[1,5-a]pyrimidin-7(4H)-one], the EC50 on human PTGR2 [1] is 874 nM. This molecule also returned an IC50 on human PTGR2 [2] of 0.2 nM.

As for `CC(C)c1cc(=O)[nH]c(SCC(=O)N2CCN(c3nccs3)[C@@H](C)C2)n1` [Compound 2, (S)-6-isopropyl-2-((2-(3-methyl-4-(thiazol-2-yl)piperazin-1-yl)-2-oxoethyl)thio)pyrimidin-4(3H)-one], at human PTGR2 [1], the response was half-maximal at 112 nM (EC50). Also, the IC50 against human PTGR2 [2] was 43 nM.

The molecule `COc1ccc(Cc2c(C)[nH]c3nc(C(C)N4CCN(c5ccccc5)CC4)nn3c2=O)c(F)c1` (centres unmarked) [Compound 5, 6-(2-fluoro-4-methoxybenzyl)-5-methyl-2-(1-(4-phenylpiperazin-1-yl)ethyl)-[1,2,4]triazolo[1,5-a]pyrimidin-7(4H)-one] registered an EC50 on human PTGR2 [1] of 40.5 nM. The IC50 against human PTGR2 [2] stood at 12.6 nM.

Regarding `Cc1[nH]c2nc(CN3CCN(c4ccccc4)CC3)nn2c(=O)c1Cc1cccc(Cl)c1F` [Compound 6, 6-(3-chloro-2-fluorobenzyl)-5-methyl-2-((4-phenylpiperazin-1-yl)methyl)-[1,2,4]triazolo[1,5-a]pyrimidin-7(3H)-one], at human PTGR2 [1], the EC50 came out at 300 nM. This molecule also yielded an IC50 on human PTGR2 [2] of 0.02 nM.

`Cc1[nH]c2nc(C(C)N3CCN(c4ccccc4)CC3)nn2c(=O)c1Cc1cc(F)c(F)cc1F` (centres unmarked) [Compound 7, 5-methyl-2-(1-(4-phenylpiperazin-1-yl)ethyl)-6-(2,4,5-trifluorobenzyl)-[1,2,4]triazolo[1,5-a]pyrimidin-7(4H)-one]: the EC50 on human PTGR2 [1] is 7 nM. Also, at human PTGR2 [2], the IC50 came out at 4.1 nM.

In turn, `Cc1[nH]c2nc(C(C)N3CCN(c4ccccc4)CC3)nn2c(=O)c1Cc1cccc(F)c1` (centres unmarked) [Compound 10, 6-(3-fluorobenzyl)-5-methyl-2-(1-(4-phenylpiperazin-1-yl)ethyl)-[1,2,4]triazolo[1,5-a]pyrimidin-7(4H)-one] came in with an EC50 at human PTGR2 [1] of 77.4 nM. Inhibition against human PTGR2 [2] was half-maximal at 7.9 nM (IC50).

On to `Cc1[nH]c2nc(C(C)N3CCN(c4ccccc4)CC3)nn2c(=O)c1Cc1cccc(Cl)c1` (centres unmarked) [Compound 11, 6-(3-chlorobenzyl)-5-methyl-2-(1-(4-phenylpiperazin-1-yl)ethyl)-[1,2,4]triazolo[1,5-a]pyrimidin-7(3H)-one], for which, on human PTGR2 [1], the EC50 is 61.4 nM. The IC50 against human PTGR2 [2] was found to be 54.3 nM.

`Cc1[nH]c2nc(CN3CCN(c4ccccc4)CC3)nn2c(=O)c1Cc1cccc(Cl)c1` [Compound 12, 6-(3-chlorobenzyl)-5-methyl-2-((4-phenylpiperazin-1-yl)methyl)-[1,2,4]triazolo[1,5-a]pyrimidin-7(3H)-one] gave an EC50 on human PTGR2 [1] of 233 nM. Moreover, the IC50 at human PTGR2 [2] is 0.01 nM.

`Cc1[nH]c2nc(C(C)N3CCN(c4ccccc4)CC3)nn2c(=O)c1Cc1cccc(C(F)(F)F)c1` (centres unmarked) [Compound 13, 5-methyl-2-(1-(4-phenylpiperazin-1-yl)ethyl)-6-(3-(trifluoromethyl)benzyl)-[1,2,4]triazolo[1,5-a]pyrimidin-7(4H)-one] gave an EC50 at human PTGR2 [1] of 19.2 nM. At human PTGR2 [2], this molecule yielded an IC50 of 61.9 nM.

At human PTGR2 [1], `COc1ccc(Cc2c(C)[nH]c3nc(C(C)N4CCN(c5ccccc5)CC4)nn3c2=O)cc1F` (centres unmarked) [Compound 15, 6-(3-fluoro-4-methoxybenzyl)-5-methyl-2-(1-(4-phenylpiperazin-1-yl)ethyl)-[1,2,4]triazolo[1,5-a]pyrimidin-7(4H)-one] yielded an EC50 of 64.5 nM. At human PTGR2 [2], this molecule registered an IC50 of 33.9 nM.

Consider `Cc1ccc(Cc2c(C)[nH]c3nc(C(C)N4CCN(c5ccccc5)CC4)nn3c2=O)cc1` (centres unmarked) [Compound 17, 5-methyl-6-(4-methylbenzyl)-2-(1-(4-phenylpiperazin-1-yl)ethyl)-[1,2,4]triazolo[1,5-a] pyrimidin-7(4H)-one], for which the response at human PTGR2 [1] was half-maximal at 104 nM (EC50). Besides, at human PTGR2 [2], the IC50 came out at 12 nM.

On human PTGR2 [1], `COc1ccc(Cc2c(C)[nH]c3nc(C(C)N4CCN(c5ccccc5)CC4)nn3c2=O)cc1` (centres unmarked) [Compound 18, 6-(4-methoxybenzyl)-5-methyl-2-(1-(4-phenylpiperazin-1-yl)ethyl)-[1,2,4]triazolo[1,5-a] pyrimidin-7(4H)-one] returned an EC50 of 280 nM. Also, on human PTGR2 [2], the IC50 turned out to be 1.7 nM.

`Cc1[nH]c2nc(C(C)N3CCN(c4ccccc4)CC3)nn2c(=O)c1Cc1ccc(F)cc1` (centres unmarked) [Compound 19, 6-(4-fluorobenzyl)-5-methyl-2-(1-(4-phenylpiperazin-1-yl)ethyl)-[1,2,4]triazolo[1,5-a]pyrimidin-7(4H)-one]: the EC50 at human PTGR2 [1] came out at 56.9 nM. The same molecule registered an IC50 on human PTGR2 [2] of 8.9 nM.

Take `Cc1[nH]c2nc(C(C)N3CCN(c4ccccc4)CC3)nn2c(=O)c1Cc1ccc(Cl)cc1` (centres unmarked) [Compound 20, 6-(4-chlorobenzyl)-5-methyl-2-(1-(4-phenylpiperazin-1-yl)ethyl)-[1,2,4]triazolo[1,5-a]pyrimidin-7(4H)-one]: the EC50 at human PTGR2 [1] was 161 nM. It took 17.2 nM to reach half-maximal inhibition against human PTGR2 [2] (IC50).

As for `Cc1[nH]c2nc(CN3CCN(c4nccs4)CC3)nn2c(=O)c1Cc1cccc(Cl)c1` [Compound 26, 6-(3-chlorobenzyl)-5-methyl-2-((4-(thiazol-2-yl)piperazin-1-yl)methyl)-[1,2,4]triazolo[1,5-a] pyrimidin-7(3H)-one], a half-maximal response on human PTGR2 [1] (EC50) required 530 nM. Moreover, at human PTGR2 [2], the IC50 was found to be 23.5 nM.

`CCCc1cc(=O)[nH]c(SCC(=O)N2CCN(c3ccccc3OC)[C@@H](C)C2)n1` [Compound 28, (S)-2-((2-(4-(2-methoxyphenyl)-3-methylpiperazin-1-yl)-2-oxoethyl)thio)-6-propylpyrimidin-4(3H)-one] showed an EC50 on human PTGR2 [1] of 108 nM. The molecule further showed an IC50 against human PTGR2 [2] of 85 nM.

At human PTGR2 [1], `COc1ccccc1N1CCN(Cc2nc3[nH]c(C)c(Cc4cccc(Cl)c4)c(=O)n3n2)CC1` [Compound 32, 6-(3-chlorobenzyl)-2-((4-(2-methoxyphenyl)piperazin-1-yl)methyl)-5-methyl-[1,2,4]triazolo[1,5-a]pyrimidin-7(3H)-one] gave an EC50 of 174 nM. Moreover, the IC50 at human PTGR2 [2] was 0.5 nM.

Molecule `Cc1[nH]c2nc(C=C3CCN(c4ccccc4)CC3)nn2c(=O)c1Cc1cccc(Cl)c1` [Compound 34, 6-(3-chlorobenzyl)-5-methyl-2-((1-phenylpiperidin-4-ylidene)methyl)-[1,2,4]triazolo[1,5-a] pyrimidin-7(4H)-one] came in with a concentration for a half-maximal effect (EC50) at human PTGR2 [1] of 427 nM. This molecule gave an IC50 against human PTGR2 [2] of 60.2 nM.

`CCCc1cc(=O)[nH]c(SCC(=O)N2CCN(c3nccs3)CC2)n1` [Compound 46, 2-((2-oxo-2-(4-(thiazol-2-yl)piperazin-1-yl)ethyl)thio)-6-propylpyrimidin-4(3H)-one] came in with an EC50 at human PTGR2 [1] of 119 nM. The molecule further came in with an IC50 against human PTGR2 [2] of 86.9 nM.

With `COc1ccccc1N1CCN(C(=O)CSc2nc(C(C)C)cc(=O)[nH]2)C[C@H]1C` [Compound 53, (R)-6-isopropyl-2-((2-(4-(2-methoxyphenyl)-3-methylpiperazin-1-yl)-2-oxoethyl)thio)pyrimidin-4(3H)-one], the EC50 at human PTGR2 [1] came out at 207 nM. It took 52.5 nM to reach half-maximal inhibition on human PTGR2 [2] (IC50).

`Cc1[nH]c2nc(C(C)N3CCN(c4ccccc4)[C@H](C)C3)nn2c(=O)c1Cc1ccc(F)cc1` (stereo partly drawn) [Compound 54, 6-(4-fluorobenzyl)-5-methyl-2-(1-((R)-3-methyl-4-phenylpiperazin-1-yl)ethyl)-[1,2,4]triazolo [1,5-a]pyrimidin-7(4H)-one] came in with an EC50 at human PTGR2 [1] of 248 nM. This molecule also registered an IC50 against human PTGR2 [2] of 31.8 nM.

Consider `CCOc1ccccc1N1CCN(C(=O)CSc2nc(C(C)C)cc(=O)[nH]2)CC1` [Compound 63, 2-((2-(4-(2-ethoxyphenyl)piperazin-1-yl)-2-oxoethyl)thio)-6-isopropylpyrimidin-4(3H)-one], for which the midpoint of the response at human PTGR2 [1], the EC50, lay at 164 nM. Further, at human PTGR2 [2], half-maximal inhibition (IC50) required 81.8 nM.
